# From PubChem BioAssay (NCI)
#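 Exposure lasted 48 hours, with cells grown in 96-well plates and compounds tested at five concentrations. Abbreviation: GI50, concentration required for 50% inhibition of growth. The concentration for full growth arrest is given as TGI.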
# Key:
# Assay in all cases: NCI-60 cell line screen, 48 h
# UO-31 renal = system: UO-31 renal
# NCI-H522 lung = system: NCI-H522 lung
# NCI-H460 lung = system: NCI-H460 lung
# 786-0 renal = system: 786-0 renal
# COLO 205 colon = system: COLO 205 colon
# A549 NSCLC = system: A549 NSCLC
# NCI/ADR-RES ovarian = system: NCI/ADR-RES ovarian
# SF-295 CNS = system: SF-295 CNS
# CAKI-1 renal = system: CAKI-1 renal
# M14 melanoma = system: M14 melanoma
# UACC-62 melanoma = system: UACC-62 melanoma
# UACC-257 melanoma = system: UACC-257 melanoma
# SW-620 colon = system: SW-620 colon
# RXF 393 renal = system: RXF 393 renal
# NCI-H23 lung = system: NCI-H23 lung
# RPMI-8226 leukemia = system: RPMI-8226 leukemia
# SK-MEL-28 melanoma = system: SK-MEL-28 melanoma
# CCRF-CEM leukemia = system: CCRF-CEM leukemia
# K-562 leukemia = system: K-562 leukemia
# T-47D breast = system: T-47D breast
# NCI-H226 lung = system: NCI-H226 lung
# SK-OV-3 ovarian = system: SK-OV-3 ovarian
# OVCAR-8 ovarian = system: OVCAR-8 ovarian
# KM12 colon = system: KM12 colon
# SF-268 CNS = system: SF-268 CNS
# A498 renal = system: A498 renal
# SNB-75 CNS = system: SNB-75 CNS
# HCT-15 colon = system: HCT-15 colon
# PC-3 prostate = system: PC-3 prostate
# OVCAR-4 ovarian = system: OVCAR-4 ovarian
# SR leukemia = system: SR leukemia
# HS 578T breast = system: HS 578T breast
# OVCAR-3 ovarian = system: OVCAR-3 ovarian
# HOP-92 NSCLC = system: HOP-92 NSCLC
# MCF7 breast = system: MCF7 breast
# MALME-3M melanoma = system: MALME-3M melanoma
# U251 CNS = system: U251 CNS
# SF-539 CNS = system: SF-539 CNS
# MDA-MB-435 = system: MDA-MB-435
# HCT-116 colon = system: HCT-116 colon
# SN12C renal = system: SN12C renal
# SK-MEL-2 melanoma = system: SK-MEL-2 melanoma
# OVCAR-5 ovarian = system: OVCAR-5 ovarian
# HL-60(TB) leukemia = system: HL-60(TB) leukemia
# SNB-19 CNS = system: SNB-19 CNS
# DU-145 prostate = system: DU-145 prostate
# BT-549 breast = system: BT-549 breast
# SK-MEL-5 melanoma = system: SK-MEL-5 melanoma
# MOLT-4 leukemia = system: MOLT-4 leukemia
# HT29 colon = system: HT29 colon
# ACHN renal = system: ACHN renal
# MDA-MB-231 breast = system: MDA-MB-231 breast
# TK-10 renal = system: TK-10 renal
# HOP-62 NSCLC = system: HOP-62 NSCLC
# LOX IMVI melanoma = system: LOX IMVI melanoma
# IGROV1 ovarian = system: IGROV1 ovarian
# HCC-2998 colon = system: HCC-2998 colon
structure (smiles),measurement,setting,value
O=C1/C(=C\c2ccc(Br)cc2)CN(C(=O)c2ccccc2F)C/C1=C\c1ccc(Br)cc1,GI50,UO-31 renal,1.53 µM
same,TGI,UO-31 renal,3.16 µM
same,GI50,NCI-H522 lung,2.15 µM
same,TGI,NCI-H522 lung,4.94 µM
same,GI50,NCI-H460 lung,3.1 µM
same,TGI,NCI-H460 lung,11.6 µM
same,GI50,786-0 renal,1.69 µM
same,TGI,786-0 renal,3.13 µM
same,GI50,COLO 205 colon,1.91 µM
same,TGI,COLO 205 colon,3.82 µM
same,GI50,A549 NSCLC,2.21 µM
same,TGI,A549 NSCLC,6.16 µM
same,GI50,NCI/ADR-RES ovarian,2.9 µM
same,TGI,NCI/ADR-RES ovarian,17.7 µM
same,GI50,SF-295 CNS,2.18 µM
same,TGI,SF-295 CNS,5.64 µM
same,GI50,CAKI-1 renal,3.05 µM
same,TGI,CAKI-1 renal,20 µM
same,GI50,M14 melanoma,1.79 µM
same,TGI,M14 melanoma,3.78 µM
same,GI50,UACC-62 melanoma,1.76 µM
same,TGI,UACC-62 melanoma,4.03 µM
same,GI50,UACC-257 melanoma,2.35 µM
same,TGI,UACC-257 melanoma,6.59 µM
same,GI50,SW-620 colon,0.913 µM
same,TGI,SW-620 colon,2.95 µM
same,GI50,RXF 393 renal,1.6 µM
same,TGI,RXF 393 renal,3.08 µM
same,GI50,NCI-H23 lung,2.49 µM
same,TGI,NCI-H23 lung,6.39 µM
same,GI50,RPMI-8226 leukemia,0.119 µM
same,TGI,RPMI-8226 leukemia,0.903 µM
same,GI50,SK-MEL-28 melanoma,2.29 µM
same,TGI,SK-MEL-28 melanoma,5.65 µM
same,GI50,CCRF-CEM leukemia,0.854 µM
same,TGI,CCRF-CEM leukemia,> 26.5 µM
same,GI50,K-562 leukemia,1.12 µM
same,TGI,K-562 leukemia,> 25.1 µM
same,GI50,T-47D breast,3.47 µM
same,TGI,T-47D breast,24.1 µM
same,GI50,NCI-H226 lung,5.07 µM
same,TGI,NCI-H226 lung,13.6 µM
same,GI50,SK-OV-3 ovarian,2.43 µM
same,TGI,SK-OV-3 ovarian,5.71 µM
same,GI50,OVCAR-8 ovarian,2.84 µM
same,TGI,OVCAR-8 ovarian,15.7 µM
same,GI50,KM12 colon,0.646 µM
same,TGI,KM12 colon,2.06 µM
same,GI50,SF-268 CNS,2.81 µM
same,TGI,SF-268 CNS,8.83 µM
same,GI50,A498 renal,2.87 µM
same,TGI,A498 renal,10.4 µM
same,GI50,SNB-75 CNS,2.03 µM
same,TGI,SNB-75 CNS,7.44 µM
same,GI50,HCT-15 colon,1.91 µM
same,TGI,HCT-15 colon,6.65 µM
same,GI50,PC-3 prostate,1.73 µM
same,TGI,PC-3 prostate,4.21 µM
same,GI50,OVCAR-4 ovarian,1.96 µM
same,TGI,OVCAR-4 ovarian,5.01 µM
same,GI50,SR leukemia,0.339 µM
same,TGI,SR leukemia,3.2 µM
same,GI50,HS 578T breast,2.15 µM
same,TGI,HS 578T breast,6.76 µM
same,GI50,OVCAR-3 ovarian,1.91 µM
same,TGI,OVCAR-3 ovarian,3.52 µM
same,GI50,HOP-92 NSCLC,2.21 µM
same,TGI,HOP-92 NSCLC,6.76 µM
same,GI50,MCF7 breast,0.308 µM
same,TGI,MCF7 breast,1.38 µM
same,GI50,MALME-3M melanoma,2.61 µM
same,TGI,MALME-3M melanoma,7.91 µM
same,GI50,U251 CNS,1.33 µM
same,TGI,U251 CNS,2.69 µM
same,GI50,SF-539 CNS,1.75 µM
same,TGI,SF-539 CNS,3.22 µM
same,GI50,MDA-MB-435,1.1 µM
same,TGI,MDA-MB-435,3.33 µM
same,GI50,HCT-116 colon,0.202 µM
same,TGI,HCT-116 colon,0.417 µM
same,GI50,SN12C renal,1.98 µM
same,TGI,SN12C renal,4.92 µM
same,GI50,SK-MEL-2 melanoma,4.77 µM
same,TGI,SK-MEL-2 melanoma,17.5 µM
same,GI50,OVCAR-5 ovarian,2.45 µM
same,TGI,OVCAR-5 ovarian,7.06 µM
same,GI50,HL-60(TB) leukemia,1.74 µM
same,TGI,HL-60(TB) leukemia,5.29 µM
same,GI50,SNB-19 CNS,2.06 µM
same,TGI,SNB-19 CNS,6.65 µM
same,GI50,DU-145 prostate,3.79 µM
same,TGI,DU-145 prostate,16.8 µM
same,GI50,BT-549 breast,1.82 µM
same,TGI,BT-549 breast,3.56 µM
same,GI50,SK-MEL-5 melanoma,1.93 µM
same,TGI,SK-MEL-5 melanoma,4.04 µM
same,GI50,MOLT-4 leukemia,2.83 µM
same,TGI,MOLT-4 leukemia,> 29.5 µM
same,GI50,HT29 colon,0.61 µM
same,TGI,HT29 colon,2.17 µM
same,GI50,ACHN renal,1.95 µM
same,TGI,ACHN renal,3.93 µM
same,GI50,MDA-MB-231 breast,2.73 µM
same,TGI,MDA-MB-231 breast,7.89 µM
same,GI50,TK-10 renal,2.84 µM
same,TGI,TK-10 renal,7.46 µM
same,GI50,HOP-62 NSCLC,1.83 µM
same,TGI,HOP-62 NSCLC,3.82 µM
same,GI50,LOX IMVI melanoma,0.334 µM
same,TGI,LOX IMVI melanoma,1.01 µM
same,GI50,IGROV1 ovarian,2.29 µM
same,TGI,IGROV1 ovarian,4.89 µM
same,GI50,HCC-2998 colon,1.65 µM
same,TGI,HCC-2998 colon,3.16 µM
